Test system: rabbit lenses
Assay: Calcium-induced lens opacification in cultured rabbit lenses, transparency evaluation
Format: cell-based
Settings: 20 mM CaCl2 plus polyamine 100 mM; for Effect on calcium-induced lens opacification (in words): 72 hours; for Percent Light Transmittance After Treatments (Average): 72 hours of treatment, absorbance at 394 nm, triplicate, Control 73.3, Ca alone 47.3
Procedure: Rabbit eyes were obtained from a rabbit renderer and were dissected within twenty-four (24) hours of the animal's death. The lenses were removed aseptically and cultured in M199 media, 20 mM HEPES, 100 units/ml penicillin, […] streptomycin and 0.1% BSA under 5% CO2 at 37° C. in a humidified incubator for twenty-four hours before the start of treatment. Lens opacification was induced with 20 mM CaCl2, according to the method of Hytower and Dering (Hightower Kr, Dering, M (1984) Invest Ophthalmol Vis Sci 251:108-111). Polyamines were added at a concentration of 100 mM. All experiments were done in triplicate.
Transparency Evaluation: When proteins are modified or oxidized they aggregate, and cause protein solutions to become cloudy or translucent because the proteins lose solubility. The turbidity of a protein solution is a measure of protein aggregation. Turbidity of the lenses after treatment was determined by measuring the increase in protein absorbency. Control (no Ca++), Ca++ and Ca++ with polyamines spermidine, spermine, or putrescine were collected and homogenized in lysis buffer [50 mM Tris-HCl, pH 8.0; 150 mM NaCl, 1% Igepal and protease inhibitor cocktail (Sigma)] after seventy-two (72) hours of treatment. Absorbance was measured at 394 nm for each sample using a spectrophotometer. Transparency was calculated as a function of the percent transmittance according to Jain (Jain Ak, Lim G, Langford M, Jain Sk (2002) Free Radic Biol Med 33:1615-1621).

NCCCCN [Putrescine, putrescine]
Effect on calcium-induced lens opacification (in words): reduce calcium-induced lens opacification
Percent Light Transmittance After Treatments (Average): 65.7%

NCCCCNCCCN [Spermidine, spermidine]
Effect on calcium-induced lens opacification (in words): reduce calcium-induced lens opacification
Percent Light Transmittance After Treatments (Average): 56.8%

NCCCNCCCCNCCCN [Spermine, spermine]
Percent Light Transmittance After Treatments (Average): 53%

Source: patent publication US20140107218A1, “METHODS FOR MAINTAINING EYE HEALTH AND AMELIORATING OPTHALMIC MALADIES IN ANIMALS” (NESTEC SA, priority 2012, published 2014)
